We go through 2 compounds from publication PMC5480602 (Slas Discovery, 2017).

For data set [1] the following is noted: cited from earlier work.
Another data set has as its target α4β2 nAChR (Homo sapiens, UniProt P17787+P43681). The data set is described as follows: cell-based.
The target in a further data set is α3β4α5 nAChR (Homo sapiens, UniProt P30532+P30926+P32297). The data set is described as follows: cell-based.
The target of the next data set is α3β4 nAChR (Homo sapiens, UniProt P30926+P32297). The data set is described as follows: cell-based.
Sequence of α3β4 nAChR (P32297 32-505): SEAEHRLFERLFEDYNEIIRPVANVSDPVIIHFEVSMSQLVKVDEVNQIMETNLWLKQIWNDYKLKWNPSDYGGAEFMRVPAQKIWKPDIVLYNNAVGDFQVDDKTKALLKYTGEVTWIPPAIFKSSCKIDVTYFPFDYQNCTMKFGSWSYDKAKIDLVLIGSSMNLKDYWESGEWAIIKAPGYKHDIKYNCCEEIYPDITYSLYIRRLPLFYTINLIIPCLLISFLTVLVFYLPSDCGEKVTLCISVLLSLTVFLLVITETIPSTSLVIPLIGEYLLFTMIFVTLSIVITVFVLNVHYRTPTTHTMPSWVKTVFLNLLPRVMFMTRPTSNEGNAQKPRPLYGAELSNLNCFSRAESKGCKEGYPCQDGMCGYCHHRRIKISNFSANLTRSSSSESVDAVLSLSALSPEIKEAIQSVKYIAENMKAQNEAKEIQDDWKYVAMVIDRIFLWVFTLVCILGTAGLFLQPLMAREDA
Sequence of α3β4 nAChR (P30926 22-498): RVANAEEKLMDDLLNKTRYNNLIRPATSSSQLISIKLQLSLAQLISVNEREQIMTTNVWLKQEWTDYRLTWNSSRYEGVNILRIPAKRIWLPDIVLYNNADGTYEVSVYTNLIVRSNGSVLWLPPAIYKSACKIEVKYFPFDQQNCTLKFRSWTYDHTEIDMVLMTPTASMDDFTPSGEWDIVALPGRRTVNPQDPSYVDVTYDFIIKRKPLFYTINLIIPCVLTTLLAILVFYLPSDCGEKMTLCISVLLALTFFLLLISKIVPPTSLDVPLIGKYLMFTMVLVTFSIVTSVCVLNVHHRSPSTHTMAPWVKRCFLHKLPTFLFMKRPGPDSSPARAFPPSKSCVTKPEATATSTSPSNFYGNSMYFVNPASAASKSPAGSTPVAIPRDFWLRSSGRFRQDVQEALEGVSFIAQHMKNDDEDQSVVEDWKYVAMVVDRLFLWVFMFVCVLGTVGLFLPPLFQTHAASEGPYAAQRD
The conditions of data set [2]: read-out: plasma levels (Cmax); in patients; cited from earlier work.
For data set [3] the following is noted: cited from earlier work. The source holds these as a separate data set.

Each structure is given as a SMILES string. pIC50: −log10 of the molar value.

Sequence of α4β2 nAChR (P43681 29-627 limits assumed): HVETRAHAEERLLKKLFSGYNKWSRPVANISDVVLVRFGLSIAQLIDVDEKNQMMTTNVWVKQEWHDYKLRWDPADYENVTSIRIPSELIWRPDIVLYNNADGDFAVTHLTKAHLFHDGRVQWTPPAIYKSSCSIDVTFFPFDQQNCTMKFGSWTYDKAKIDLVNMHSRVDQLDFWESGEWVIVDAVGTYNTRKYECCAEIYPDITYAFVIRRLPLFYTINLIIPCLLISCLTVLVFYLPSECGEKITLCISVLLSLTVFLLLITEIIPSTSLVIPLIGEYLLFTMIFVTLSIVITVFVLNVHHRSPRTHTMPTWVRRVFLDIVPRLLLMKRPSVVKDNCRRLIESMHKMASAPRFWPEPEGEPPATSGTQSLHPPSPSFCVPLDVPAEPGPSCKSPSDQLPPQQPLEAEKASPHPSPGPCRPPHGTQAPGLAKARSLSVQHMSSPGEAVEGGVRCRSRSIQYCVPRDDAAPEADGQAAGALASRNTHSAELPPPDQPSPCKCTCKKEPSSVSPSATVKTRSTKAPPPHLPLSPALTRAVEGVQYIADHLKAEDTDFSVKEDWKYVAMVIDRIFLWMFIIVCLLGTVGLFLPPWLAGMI
Sequence of α4β2 nAChR (P17787 26-502): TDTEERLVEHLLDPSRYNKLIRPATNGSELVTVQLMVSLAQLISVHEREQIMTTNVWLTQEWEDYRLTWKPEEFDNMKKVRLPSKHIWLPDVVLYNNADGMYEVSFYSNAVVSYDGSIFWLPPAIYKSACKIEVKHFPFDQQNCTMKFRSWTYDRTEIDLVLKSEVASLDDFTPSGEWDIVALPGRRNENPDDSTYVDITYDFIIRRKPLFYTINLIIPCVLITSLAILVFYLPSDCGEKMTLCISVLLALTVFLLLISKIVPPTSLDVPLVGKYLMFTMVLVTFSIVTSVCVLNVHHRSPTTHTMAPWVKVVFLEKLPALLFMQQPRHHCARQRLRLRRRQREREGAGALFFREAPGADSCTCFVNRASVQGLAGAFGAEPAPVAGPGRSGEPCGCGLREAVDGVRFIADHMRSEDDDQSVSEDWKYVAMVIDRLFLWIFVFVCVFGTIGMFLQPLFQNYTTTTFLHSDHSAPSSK
Sequence of α3β4α5 nAChR (P32297 32-505): as the sequence (P32297 32-505) above
Sequence of α3β4α5 nAChR (P30926 22-498): as the sequence (P30926 22-498) above
Sequence of α3β4α5 nAChR (P30532 23-468): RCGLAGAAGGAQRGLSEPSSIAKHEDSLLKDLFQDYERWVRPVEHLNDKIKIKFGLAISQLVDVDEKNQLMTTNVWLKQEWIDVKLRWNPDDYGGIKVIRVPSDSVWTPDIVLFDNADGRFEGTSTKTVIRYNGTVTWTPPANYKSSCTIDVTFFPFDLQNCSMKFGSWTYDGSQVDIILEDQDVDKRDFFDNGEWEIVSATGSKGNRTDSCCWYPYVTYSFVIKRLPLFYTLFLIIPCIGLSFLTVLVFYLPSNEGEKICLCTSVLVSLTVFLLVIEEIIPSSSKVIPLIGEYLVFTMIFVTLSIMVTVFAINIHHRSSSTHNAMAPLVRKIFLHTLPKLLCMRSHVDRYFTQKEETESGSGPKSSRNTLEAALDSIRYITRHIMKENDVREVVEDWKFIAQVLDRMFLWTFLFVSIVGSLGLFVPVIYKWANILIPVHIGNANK

`NC1=NCC2c3ccccc3Cc3ccccc3N12` (stereo not shown) [epinastine]: the “efficiency of crossing the blood-brain barrier” value in data set [1] was ~ 10%. Besides, the pIC50 at α4β2 nAChR, on α3β4α5 nAChR and at α3β4 nAChR was not above 6.00 throughout. Besides, in data set [2], the maximum concentration (Cmax) (in general, the maximum level reached in the sampled fluid or tissue) is approximately 100 nM.
Take `N=C(N)c1ccc(OCCCCCOc2ccc(C(=N)N)cc2)cc1` [pentamidine]: the plasma concentrations in data set [3] is given as ~ 1.8 µM. Also, in data set [1], the “efficiency in crossing the blood-brain barrier” value is recorded as ~ 0.04%.
